Results reported in the supplement of paper PMC10307832.

Legend:
Assay in all cases: relative viability (nuclei count vs DMSO), 5 days (fraction); higher = more cells survive
[1] = compound: CCc1c2c(nc3ccc(OC(=O)N4CCC(N5CCCCC5)CC4)cc13)-c1cc3c(c(=O)n1C2)COC(=O)[C@]3(O)CC [Irinotecan] + Cc1cc(Nc2cc(N3CCN(C)CC3)nc(Sc3ccc(NC(=O)C4CC4)cc3)n2)n[nH]1 [Tozasertib] (partner 0.1 µM)
Procedure, shortened: (§1)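 Relative viability was taken as the ratio of nuclei in treated wells to nuclei in vehicle wells. Lung cancer cell lines in 1536-well plates received compounds by pin tool one day after seeding, either one drug alone or a fixed anchor-drug dose plus five library-drug doses (not always all listed) in √10 steps. Nuclei were counted on 4× images after 5 days of treatment, and values are medians of duplicate plates.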

[2] = compound: CCc1c2c(nc3ccc(OC(=O)N4CCC(N5CCCCC5)CC4)cc13)-c1cc3c(c(=O)n1C2)COC(=O)[C@]3(O)CC [Irinotecan] + NC(=O)Nc1cc(-c2cccc(F)c2)sc1C(=O)N[C@H]1CCCNC1 [AZD7762] (partner 0.2 µM)
Procedure, shortened: as §1

[3] = compound: CCc1c2c(nc3ccc(OC(=O)N4CCC(N5CCCCC5)CC4)cc13)-c1cc3c(c(=O)n1C2)COC(=O)[C@]3(O)CC [Irinotecan] + N=C(N)NC(=N)NCCc1ccccc1 [Phenformin] (partner 250 µM)
Procedure, shortened: as §1

[4] = compound: CC[C@@H](C)CNCC(=O)N1CCC2=C([C@@H]1COC3=CC=CC(=C3)C)C=CS2 [RU-SKI 43] + CCNC(=O)c1noc(-c2cc(C(C)C)c(O)cc2O)c1-c1ccc(CN2CCOCC2)cc1 [Luminespib] (partner 0.01 µM)
Procedure, shortened: as §1

Cell Line	relative viability ([1]; first compound 2 µM)	relative viability ([1]; first compound 6.325 µM)	relative viability ([1]; first compound 20 µM)	relative viability ([2]; first compound 0.6325 µM)	relative viability ([2]; first compound 2 µM)	relative viability ([2]; first compound 6.325 µM)	relative viability ([2]; first compound 20 µM)	relative viability ([3]; first compound 2 µM)	relative viability ([3]; first compound 6.325 µM)	relative viability ([3]; first compound 20 µM)	relative viability ([4]; first compound 0.1 µM)	relative viability ([4]; first compound 0.3162 µM)	relative viability ([4]; first compound 1 µM)	relative viability ([4]; first compound 3.162 µM)	relative viability ([4]; first compound 10 µM)	relative viability ([1]; first compound 0.6325 µM)	relative viability ([3]; first compound 0.6325 µM)
201T	0.682	0.402	0.318	0.456	0.416	0.345	0.266	0.489	0.361	0.333	1.06	1.06	1.04	1.06	1.03		
A549								0.198	0.113	0.0897							
A-427	0.159	0.216	0.182	0.712	0.642	0.315	0.18	0.21	0.173	0.184	0.851	1.2	1	0.668	0.789		
ABC-1	0.236	0.211	0.114		0.718	0.308	0.422	0.292	0.229	0.0948	0.68	0.434	0.485	0.673	0.811		
BEN	0.499	0.447	0.34	0.55	0.677	0.447	0.472	0.247	0.24	0.272	0.423	0.277	0.525	0.218	0.421	0.378	0.242
CAL-12T	0.419	0.322	0.197	0.676	0.564	0.453	0.29	0.668	0.275	0.186	0.207	0.364	0.179	0.19	0.363		
COR-L23	0.225	0.176	0.105					0.394	0.188	0.108	0.547	0.573	0.93	0.869	0.614	0.161	0.31
COR-L 105	0.373	0.458	0.273					0.682	0.41	0.182	0.871	0.837	0.643	0.772	0.686	0.346	0.505
ChaGo-K-1	0.205	0.193	0.218	0.584	0.542	0.27	0.204	0.352	0.191	0.218	0.661	0.566	0.723	0.645	0.516	0.216	0.413
EKVX	0.258	0.303	0.177		0.632	0.426	0.246	0.185	0.224	0.151	0.939	0.809	0.758	0.932	0.833	0.336	0.216
EMC-BAC-2	0.269	0.259	0.406	0.942	0.696	0.327	0.287	0.399	0.271	0.276	1.18	1.26	1.32	1.16	1.19	0.263	0.336
EPLC-272H	0.252	0.258	0.25		0.234	0.133	0.137	0.244	0.241	0.294	0.467	0.182	0.73	0.423	0.278	0.165	0.25
H3255	0.501	0.375	0.437	0.713	0.611	0.354	0.388	0.337	0.344	0.331	0.928	0.951	1.23	0.76	0.849	0.513	0.343
HARA	0.12	0.107	0.103	0.2	0.278	0.154	0.255	0.157	0.11	0.113	0.687	0.765	0.918	0.974	0.672	0.0659	0.351
HCC-15	0.332	0.164	0.151	1.09	1.08	0.609	0.22	0.331	0.183	0.12	0.427	0.249	0.478	0.285	0.419		
HCC-44	1.17	0.377	0.308	0.909	1.03	0.798	0.486	0.251	0.147	0.211	1.02		1.16	1.02	0.894		
HCC-78	0.356	0.21	0.0831	0.629	0.666	0.392	0.302	0.546	0.257	0.229						0.411	0.733
HCC-366	0.109	0.0553	0.0875	0.182	0.138	0.0668	0.0622	0.371	0.0734	0.078						0.0963	0.495
HCC-827	0.307	0.249	0.175	0.201	0.193	0.203	0.182	0.349	0.159	0.209	0.77	0.795	0.588	0.612	0.679	0.318	0.345
HOP-62	0.328	0.249	0.215	0.211	0.316	0.236	0.161	0.532	0.267	0.204	1	1.29	1.07	0.984	1.04	0.234	0.443
LC-2-ad	0.437	0.343	0.233	0.446	0.567	0.272	0.17	0.529	0.324	0.197	0.987	1.1	1	1.04	0.956	0.439	0.444
LCLC-97TM1	0.176	0.125	0.113	0.0915	0.143	0.105	0.116	0.205	0.127	0.115	0.902	0.927	0.876	0.898	0.85	0.14	0.322

Cell Line	relative viability ([1]; first compound 2 µM)	relative viability ([1]; first compound 6.325 µM)	relative viability ([1]; first compound 20 µM)	relative viability ([2]; first compound 0.6325 µM)	relative viability ([2]; first compound 2 µM)	relative viability ([2]; first compound 6.325 µM)	relative viability ([2]; first compound 20 µM)	relative viability ([3]; first compound 2 µM)	relative viability ([3]; first compound 6.325 µM)	relative viability ([3]; first compound 20 µM)	relative viability ([4]; first compound 0.1 µM)	relative viability ([4]; first compound 0.3162 µM)	relative viability ([4]; first compound 1 µM)	relative viability ([4]; first compound 3.162 µM)	relative viability ([4]; first compound 10 µM)	relative viability ([1]; first compound 0.6325 µM)	relative viability ([3]; first compound 0.6325 µM)
LCLC-103H	0.425	0.301	0.32	0.458	0.682	0.497	0.4	0.358	0.256	0.321	0.934	1.16	1.1	1.1	0.971	0.431	0.344
LK-2	0.192	0.287	0.352	0.316	0.388	0.222	0.281	0.63	0.315	0.307	0.182	0.168	0.171	0.189	0.177	0.183	0.419
LOU-NH91	0.533	0.358	0.222	0.719	0.756	0.421	0.156	0.639	0.377	0.391	0.307	0.304	0.431	0.36	0.317	0.568	0.617
LU99A	0.223	0.153	0.225	0.152	0.13	0.106	0.132	0.37	0.208	0.301	0.195	0.24	0.211	0.259	0.192	0.257	0.369
LXF-289	0.179	0.112	0.174	1.01	1.05	0.425	0.192	0.46	0.262	0.162	0.729	0.853	0.852	0.751	0.568	0.185	0.5
NCI-H23	0.256	0.235	0.218	0.158	0.238	0.251	0.202	0.647	0.221	0.252	0.209	0.181	0.209		0.224	0.24	0.586
NCI-H322M	0.511	0.411	0.202	0.537	0.553	0.448	0.28	0.758	0.515	0.265	0.858	0.932	0.877	0.884	0.727	0.461	0.745
NCI-H520	0.514	0.445	0.427					0.649	0.317	0.258	0.191	0.18	0.257	0.209	0.216	0.446	0.542
NCI-H661	0.372	0.469	0.333					0.329	0.277	0.191	0.942	1.03	0.947	0.932	0.898	0.372	0.254
NCI-H1563								0.691	0.608	0.38	0.51	0.502	0.51	0.529	0.495		0.634
NCI-H1623	0.34	0.227	0.227					0.696	0.233	0.219	0.452	0.478	0.468	0.577	0.447	0.343	0.548
NCI-H1648	0.346	0.402	0.291	0.562	0.768	0.434	0.466									0.39	
NCI-H1650	0.423	0.366	0.211					0.418	0.34	0.196	0.185	0.191	0.226	0.205	0.206		
NCI-H1703					0.124	0.128	0.181										
NCI-H1792				0.241	0.502	0.169	0.274	0.424	0.314	0.28	0.462	0.568	0.447	0.492	0.456		0.273
NCI-H2009	0.566	0.334	0.13					0.411	0.232	0.167	0.981	1.12	0.984	1.02	1.03	0.599	0.421
NCI-H2023	0.408	0.205	0.104					0.391	0.178	0.0825	0.919	1	0.887	0.856	0.876	0.355	0.415
NCI-H2228	0.31	0.348	0.287					0.347	0.336	0.27	0.178	0.15	0.177	0.149	0.199	0.259	0.311
SK-LU-1	0.295	0.26	0.285					0.35	0.276	0.283	0.225	0.215	0.202	0.227	0.215	0.315	0.429
SK-MES-1	0.473	0.248	0.151					0.51	0.264	0.191	0.761	0.854	0.818	0.929	0.75	0.659	0.582
SW 1573	0.311	0.183	0.155					0.425	0.248	0.146	0.223	0.203	0.246	0.154	0.308	0.152	0.32
